Here are results for 13 compounds from ChEMBL document CHEMBL1201862, “PubChem BioAssay data set” (2004).

Active and inactive are the calls of the source.

The target in test [1] is T1, Estrogen receptor beta (Homo sapiens, UniProt Q92731).
Test [2] addresses T1, Estrogen receptor beta. As to the kind of experiment: blockers of SRC-3 recruitment to ERβ – biochemical, ELISA, streptavidin-HRP readout, orthogonal assay, confirmation (AID 1060). For orientation: In an ELISA, binding on a coated surface is turned into a signal by an enzyme label.
Test [3] addresses T2, Protein skinhead-1 (Caenorhabditis elegans, UniProt P34707).
T2 sequence (P34707 whole entry): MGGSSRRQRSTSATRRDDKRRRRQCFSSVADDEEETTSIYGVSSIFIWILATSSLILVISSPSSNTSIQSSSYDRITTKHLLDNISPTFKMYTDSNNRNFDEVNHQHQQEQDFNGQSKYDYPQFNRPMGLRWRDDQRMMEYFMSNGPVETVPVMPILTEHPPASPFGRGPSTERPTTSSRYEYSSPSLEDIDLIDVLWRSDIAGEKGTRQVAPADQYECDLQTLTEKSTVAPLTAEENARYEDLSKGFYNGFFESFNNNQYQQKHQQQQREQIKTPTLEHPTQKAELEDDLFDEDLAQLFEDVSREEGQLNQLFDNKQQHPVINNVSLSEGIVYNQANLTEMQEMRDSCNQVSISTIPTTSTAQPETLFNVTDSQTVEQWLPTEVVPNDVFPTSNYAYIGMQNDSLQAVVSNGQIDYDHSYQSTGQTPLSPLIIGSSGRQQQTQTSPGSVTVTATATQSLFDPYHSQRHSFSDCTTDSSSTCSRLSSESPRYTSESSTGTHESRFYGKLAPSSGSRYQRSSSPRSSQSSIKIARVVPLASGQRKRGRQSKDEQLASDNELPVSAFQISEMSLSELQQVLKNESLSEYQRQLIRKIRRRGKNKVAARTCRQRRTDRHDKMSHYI
Type of test: functional.

The target in test [4] is Transthyretin (Homo sapiens, UniProt P02766). As to the kind of experiment: Luminescence-based cell-based high throughput dose response assay to identify activators of Transthyretin (TTR) transcription. Type of test: functional.
Test [5] in a line: Luminescence Cell-Based Dose Retest to Confirm Inhibitors of Cancer Stem Cells. [Related pubchem assays (depositor defined):AID2717, AID2721]. Type of test: functional. The following applies: Homo sapiens.
Test [6] in a line: viability loss in human Jurkat cells – cell-based, luminescence, cytotoxicity control for P. falciparum gametocyte viability project, dose response (AID 1117277).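 Note: potency reflects loss of cellular ATP meaning fewer viable cells.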 Type of test: functional.
Test [7] is described as follows: viability inhibitors of stage V gametocytes – luminescence, dose response (AID 1117278).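 Note: gametocytes exposed to compound for 24 hours.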 Type of test: functional, cell-based.
In test [8] the target is ADP-ribosylation factor GTPase-activating protein 1 (Rattus norvegicus, UniProt Q62848). The experiment in a line: Fluorescence polarization-based biochemical high throughput dose response screening assay to identify inhibitors of ADP-ribosylation factor GTPase activating protein 1 (ARFGAP1). It is filed as functional. Background: Polarisation of emitted light reports the rotation of a fluorescent probe.

Test [9] concerns the target Arf-GAP with SH3 domain, ANK repeat and PH domain-containing protein 1 (Homo sapiens, UniProt Q9ULH1). Type of test: functional.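 Note: biochemical fluorescence polarization dose–response screen measuring inhibition of ASAP1; ASAP1 GAP domain stimulating GTP hydrolysis by truncated human ARF1.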
Test [10] deals with HT-1080. The experiment in a line: HT1080 cell viability loss – fluorescence readout (AID 620). It is filed as functional, cell-based. The conditions noted are these: Homo sapiens.
The target of test [11] is T3, Estrogen receptor (Homo sapiens, UniProt P03372).
T3 sequence (P03372 whole entry): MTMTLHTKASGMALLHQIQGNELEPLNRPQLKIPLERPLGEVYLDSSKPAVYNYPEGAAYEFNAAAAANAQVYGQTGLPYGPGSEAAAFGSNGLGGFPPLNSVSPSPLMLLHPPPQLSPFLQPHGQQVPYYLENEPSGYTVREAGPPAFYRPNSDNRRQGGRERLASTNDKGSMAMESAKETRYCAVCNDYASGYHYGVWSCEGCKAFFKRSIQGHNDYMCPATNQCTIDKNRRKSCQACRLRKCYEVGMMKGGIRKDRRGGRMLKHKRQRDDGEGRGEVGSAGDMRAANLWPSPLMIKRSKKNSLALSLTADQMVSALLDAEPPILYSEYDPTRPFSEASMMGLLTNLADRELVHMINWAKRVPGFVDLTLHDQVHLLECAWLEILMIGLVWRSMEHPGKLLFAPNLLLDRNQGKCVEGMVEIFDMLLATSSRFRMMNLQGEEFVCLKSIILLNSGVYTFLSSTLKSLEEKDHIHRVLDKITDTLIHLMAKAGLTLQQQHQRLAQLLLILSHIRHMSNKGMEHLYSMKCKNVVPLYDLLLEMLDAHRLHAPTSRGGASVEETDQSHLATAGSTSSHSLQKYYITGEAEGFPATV
As to the kind of experiment: ERα coactivator recruitment enhancers – biochemical, TR-FRET, ERα LBD, dose response (AID 737).

The target of test [12] is Cytochrome P450 2C19 (Homo sapiens, UniProt P33261). The experiment in a line: Cytochrome panel assay with activity outcomes. Panel member name: p450-cyp2c19 Compounds with AC50 equal or less than 10 uM are considered active. It is filed as functional. The conditions noted are these: read-out: AC50.
Test [13] can be described thus: Luminescence Cell-Based Dose Response to Identify Activators of 5'UTR Stem-Loop Driven Prion Protein mRNA Translation in H4-C Neuroglioblastoma Cells. [Related pubchem assays: 1829 (Project Summary), 1814 (Primary HTS)]. It is filed as functional.
A short description of test [14]: Luminescence Cell-Based Dose Response HTS to Identify Activators of Luciferase Translation or Activity in H4 […] Cells. [Related pubchem assays: 1829 (Project Summary), 1814 (Primary HTS)]. Type of test: functional.
Test [15] is described as follows: Luminescence Cell-Based Dose Confirmation to Identify Activators of 5'UTR Stem-Loop Driven Alpha-Synuclein mRNA Translation in H4 Neuroglioblastoma Cells. [Related pubchem assays: 1829 (Project Summary), 1814 (Primary HTS)]. It is filed as functional.
Test [16] can be described thus: Luminescence Cell-Based Dose Response to Identify Activators of Luciferase Translation or Activity in H4-C Neuroglioblastoma Cells. [Related pubchem assays: 1829 (Project Summary), 1814 (Primary HTS)]. Type of test: functional.
Test [17] is described as follows: A2780 cell killing – plate reader, dry powder samples, cytotoxicity control, dose response (AID 743046). Type of test: functional, cell-based.
Test [18] in a line: OVCAR-3 cell viability loss – plate reader, dry powder samples, PAX8 inhibitor project, dose response (AID 743044). It is filed as functional, cell-based.
A short description of test [19]: IGROV1 cell killing – plate reader, dry powder samples, PAX8 inhibitor project, dose response (AID 743043). Type of test: functional, cell-based. The conditions noted are these: IGROV-1.
Test [20] concerns the target Paired box protein Pax-8 (Homo sapiens, UniProt Q06710). As to the kind of experiment: PAX8 transcriptional activity inhibition in RMG-I – RMG-I cells, luciferase, cherry-pick, dose response (AID 687027).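 Note: luciferase reporter driven by Pax8 target thyroperoxidase promoter measured by SteadyGlo luminescence.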 It is filed as functional, cell-based.
Test [21] is described as follows: toxicity to human hepatoma HepG2 cells – cell-based, cherry-picked samples, cytotoxicity control, dose response (AID 1159577). It is filed as functional.
A short description of test [22]: P. falciparum Dd2 growth inhibitors, dose response, SYBR Green, cherry-picked samples (AID 1159567). It is filed as functional, cell-based.
Test [23] in a line: general cell-killing toxicity readout – plate reader, dry powder samples, cytotoxicity control for PAX8 inhibitor project, dose response (AID 743021). Type of test: functional, cell-based.
Test [24] in a line: toxicity toward immortalized ovarian surface epithelium – cell-based, plate reader, dry powder samples, cytotoxicity control for PAX8 inhibitor project, dose response (AID 743045). Type of test: functional.
Test [25] can be described thus: OVCAR8 cell viability loss – plate reader, dry powder samples, PAX8 project, dose response (AID 743197). It is filed as functional, cell-based. The following applies: OVCAR-8.
The nature of test [26]: viability loss in MITF-independent A375 cells – cell-based, CellTiter-Glo luminescence, dry powder, set 2, counter-screen for MITF inhibitor project, dose response (AID 624489).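 Note: actives are compounds lowering A375 viability meaning general cytotoxicity.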 It is filed as functional. The following applies: A-375. A general note: In ATP-based viability assays light output follows the ATP content of the culture.
Test [27] in a line: cytotoxicity in MITF-independent A375 cells – cell-based, CellTiter-Glo luminescence, dry powder, set 4, counter-screen for MITF inhibitor project, dose response (AID 624364).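 Note: A375 melanoma cells are MITF independent so this is a counter screen.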 Type of test: functional. The conditions noted are these: A-375.
Test [28] deals with Heat shock protein HSP 90-alpha (Homo sapiens, UniProt P07900). The experiment in a line: Luminescence-based dose response biochemical high throughput screening assay for inhibitors of the Heat Shock Protein 90 (HSP90). [Related pubchem assays: 1831 (Summary AID.), 1846 (Confirmation screen.), 1789 (Primary screen.)].
The nature of test [29]: SNU-C1 cell viability reduction, dose response, CellTiter-Glo luminescence (AID 1117323). Type of test: functional, cell-based.
Test [30] is described as follows: CellTiter-Glo luminescence survival assay, SW480 colon tumor line, concentration-response curve, half-maximal inhibitory concentration (AID 1117338). It is filed as functional.
Test [31] can be described thus: cytotoxicity toward Colo320 cells – cell-based, CellTiter-Glo luminescence, IC50, dose response (AID 1117334). Type of test: functional. The conditions noted are these: COLO 320.
Test [32] in a line: cytotoxicity toward HT-29 cells – cell-based, CellTiter-Glo luminescence, IC50, dose response (AID 1117330). Type of test: functional.
Test [33] can be described thus: Reduced DLD-1 viability, concentration-response, CellTiter-Glo luminescence (AID 1117352). Type of test: functional.
Test [34] in a line: HCT116 cell viability decrease, GSK3B pretreatment – CellTiter-Glo, IC50, dose response (AID 1117339). The conditions noted are these: HCT-116. It is filed as functional.
For test [35], the target named is T4, Polyadenylate-binding protein 1 (Homo sapiens, UniProt P11940). The experiment in a line: MLLE domain peptide-binding blockers, IC50 – biochemical, fluorescence polarization, FITC-PAM2 peptide, dose response (AID 602259). Type of test: functional. The conditions noted are these: read-out: IC50_Mean.
For test [36], the target named is T4, Polyadenylate-binding protein 1. As to the kind of experiment: MLLE binding blockers, Cy5 peptide tracer – biochemical, fluorescence polarization, Cy5-PAM2 peptide, secondary, miRNA deadenylation inhibitor project, dose response (AID 602260). It is filed as functional. The conditions noted are these: read-out: IC50_Mean.
Test [37] is described as follows: cytotoxicity toward HCT116 cells – cell-based, CellTiter-Glo luminescence, IC50, dose response (AID 1117332). It is filed as functional. The following applies: HCT-116.

T1 sequence (Q92731 whole entry): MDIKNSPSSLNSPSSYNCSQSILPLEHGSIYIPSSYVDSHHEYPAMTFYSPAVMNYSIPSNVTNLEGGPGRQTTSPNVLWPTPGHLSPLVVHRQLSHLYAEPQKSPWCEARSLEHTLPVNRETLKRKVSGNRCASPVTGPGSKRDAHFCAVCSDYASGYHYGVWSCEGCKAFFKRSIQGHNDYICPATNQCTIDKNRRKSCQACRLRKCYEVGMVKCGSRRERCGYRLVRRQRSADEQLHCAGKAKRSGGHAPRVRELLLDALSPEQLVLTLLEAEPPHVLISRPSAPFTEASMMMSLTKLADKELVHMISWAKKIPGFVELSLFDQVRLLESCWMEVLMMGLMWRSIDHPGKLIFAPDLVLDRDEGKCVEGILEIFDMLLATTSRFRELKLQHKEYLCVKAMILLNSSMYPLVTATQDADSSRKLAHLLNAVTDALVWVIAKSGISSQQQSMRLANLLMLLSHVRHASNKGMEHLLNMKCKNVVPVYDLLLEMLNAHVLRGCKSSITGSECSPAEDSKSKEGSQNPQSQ
T4 sequence (P11940 whole entry, the tested form may be a part): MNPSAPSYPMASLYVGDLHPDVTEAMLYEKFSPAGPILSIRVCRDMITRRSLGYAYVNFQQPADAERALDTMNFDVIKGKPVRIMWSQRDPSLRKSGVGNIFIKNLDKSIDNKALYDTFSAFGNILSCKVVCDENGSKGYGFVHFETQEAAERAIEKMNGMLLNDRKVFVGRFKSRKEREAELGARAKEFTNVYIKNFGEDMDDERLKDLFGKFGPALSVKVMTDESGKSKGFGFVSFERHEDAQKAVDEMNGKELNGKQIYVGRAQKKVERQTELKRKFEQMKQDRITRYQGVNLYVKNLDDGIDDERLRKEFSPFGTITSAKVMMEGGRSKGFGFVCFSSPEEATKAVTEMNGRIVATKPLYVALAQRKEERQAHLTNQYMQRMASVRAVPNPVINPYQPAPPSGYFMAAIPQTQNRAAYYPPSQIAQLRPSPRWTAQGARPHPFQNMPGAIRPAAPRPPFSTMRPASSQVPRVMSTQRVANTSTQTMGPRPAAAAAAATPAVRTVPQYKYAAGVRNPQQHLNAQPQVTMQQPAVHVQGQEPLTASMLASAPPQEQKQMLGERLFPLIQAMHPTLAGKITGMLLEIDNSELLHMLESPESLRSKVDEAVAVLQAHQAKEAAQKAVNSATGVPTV
Cytochrome P450 2C19, sequence (P33261 whole entry): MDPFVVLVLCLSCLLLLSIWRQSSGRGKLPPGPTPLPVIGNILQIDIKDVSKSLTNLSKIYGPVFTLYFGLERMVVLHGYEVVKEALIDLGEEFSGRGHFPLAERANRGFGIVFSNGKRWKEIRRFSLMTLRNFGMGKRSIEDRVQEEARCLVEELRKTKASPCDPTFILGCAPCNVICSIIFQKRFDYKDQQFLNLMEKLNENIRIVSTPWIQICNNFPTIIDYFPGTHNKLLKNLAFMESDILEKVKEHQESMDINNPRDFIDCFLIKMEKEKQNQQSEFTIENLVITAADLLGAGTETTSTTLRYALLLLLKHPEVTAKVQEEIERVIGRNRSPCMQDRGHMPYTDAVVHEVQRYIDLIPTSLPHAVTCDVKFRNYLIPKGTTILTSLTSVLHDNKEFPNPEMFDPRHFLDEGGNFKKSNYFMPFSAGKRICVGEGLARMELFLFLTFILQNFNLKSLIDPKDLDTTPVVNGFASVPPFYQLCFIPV
Paired box protein Pax-8, sequence (Q06710 whole entry): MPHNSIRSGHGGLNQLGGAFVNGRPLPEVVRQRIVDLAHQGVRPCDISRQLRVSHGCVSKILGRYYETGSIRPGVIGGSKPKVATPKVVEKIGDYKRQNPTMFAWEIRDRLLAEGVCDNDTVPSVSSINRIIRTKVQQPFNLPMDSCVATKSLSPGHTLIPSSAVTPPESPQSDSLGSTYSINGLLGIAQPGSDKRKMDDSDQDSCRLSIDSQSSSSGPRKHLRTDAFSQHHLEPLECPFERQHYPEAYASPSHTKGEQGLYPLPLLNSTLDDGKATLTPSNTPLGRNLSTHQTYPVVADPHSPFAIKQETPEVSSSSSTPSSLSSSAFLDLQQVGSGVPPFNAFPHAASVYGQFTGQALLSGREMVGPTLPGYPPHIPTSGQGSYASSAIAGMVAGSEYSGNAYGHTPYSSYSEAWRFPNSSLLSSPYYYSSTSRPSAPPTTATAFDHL
ADP-ribosylation factor GTPase-activating protein 1, sequence (Q62848 whole entry): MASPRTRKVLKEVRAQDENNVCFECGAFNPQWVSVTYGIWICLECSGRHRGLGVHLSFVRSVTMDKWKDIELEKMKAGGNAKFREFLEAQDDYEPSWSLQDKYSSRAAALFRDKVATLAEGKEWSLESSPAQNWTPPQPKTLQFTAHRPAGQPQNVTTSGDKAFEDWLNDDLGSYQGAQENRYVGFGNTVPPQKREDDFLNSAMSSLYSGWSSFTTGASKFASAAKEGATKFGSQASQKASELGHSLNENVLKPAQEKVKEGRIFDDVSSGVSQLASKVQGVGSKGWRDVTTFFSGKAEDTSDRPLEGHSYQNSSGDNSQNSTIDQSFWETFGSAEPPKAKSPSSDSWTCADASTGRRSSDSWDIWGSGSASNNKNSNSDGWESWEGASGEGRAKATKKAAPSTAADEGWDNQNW
Arf-GAP with SH3 domain, ANK repeat and PH domain-containing protein 1, sequence (Q9ULH1 whole entry, the tested form may be a part): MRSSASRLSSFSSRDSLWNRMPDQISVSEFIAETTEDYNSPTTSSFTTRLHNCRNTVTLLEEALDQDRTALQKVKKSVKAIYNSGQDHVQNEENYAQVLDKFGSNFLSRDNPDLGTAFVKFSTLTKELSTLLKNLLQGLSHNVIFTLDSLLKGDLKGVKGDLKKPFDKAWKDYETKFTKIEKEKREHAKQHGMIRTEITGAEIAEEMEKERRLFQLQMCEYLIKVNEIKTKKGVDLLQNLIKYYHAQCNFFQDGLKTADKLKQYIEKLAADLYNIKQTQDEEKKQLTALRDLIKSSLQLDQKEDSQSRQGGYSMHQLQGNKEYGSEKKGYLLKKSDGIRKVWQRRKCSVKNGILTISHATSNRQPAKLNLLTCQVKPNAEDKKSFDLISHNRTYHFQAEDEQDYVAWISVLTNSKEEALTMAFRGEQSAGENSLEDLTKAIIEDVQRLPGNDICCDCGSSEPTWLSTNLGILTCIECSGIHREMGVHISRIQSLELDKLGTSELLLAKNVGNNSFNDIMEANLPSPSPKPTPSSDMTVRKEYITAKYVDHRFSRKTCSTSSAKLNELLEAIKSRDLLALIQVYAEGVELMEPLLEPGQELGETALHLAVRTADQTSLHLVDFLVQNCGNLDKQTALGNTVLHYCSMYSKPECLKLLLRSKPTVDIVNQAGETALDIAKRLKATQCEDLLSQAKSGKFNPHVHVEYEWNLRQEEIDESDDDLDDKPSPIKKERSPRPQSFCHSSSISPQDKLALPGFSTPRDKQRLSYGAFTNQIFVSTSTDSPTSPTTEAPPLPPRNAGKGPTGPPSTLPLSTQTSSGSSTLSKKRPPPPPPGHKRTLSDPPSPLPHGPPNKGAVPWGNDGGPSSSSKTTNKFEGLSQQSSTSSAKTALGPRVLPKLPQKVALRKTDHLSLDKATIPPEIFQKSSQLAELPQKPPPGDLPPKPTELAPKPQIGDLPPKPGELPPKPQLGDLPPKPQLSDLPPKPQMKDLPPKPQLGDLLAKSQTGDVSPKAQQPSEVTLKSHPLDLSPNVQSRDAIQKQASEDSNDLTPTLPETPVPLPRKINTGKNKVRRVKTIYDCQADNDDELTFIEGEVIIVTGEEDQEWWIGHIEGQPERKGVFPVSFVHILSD

As to `CCOC(=O)c1c(C)[nH]c(C)c1C(=O)COC(=O)CCOc1ccccc1OC`, the figures for the IC50 in test [1] and in test [2] were 35.3 µM (not active) and > 109 µM (not active), respectively.
`O=[N+]([O-])c1cccc(-c2noc(-c3ccco3)n2)c1`: the IC50 in test [3] was > 100 µM (inactive). Moreover, the EC50 (as a rule, the concentration at which the effect is half-maximal) in test [4] is > 167 µM (inactive).
As for `Cc1ccc(C(=O)NC2c3ccccc3-c3ccccc32)cc1`, the AC50 (in general, the midpoint of the concentration-response curve, whichever way the signal moves) in test [5] was 0.448 µM (active). The IC50 in [6] is > 1.03 µM (active); in [7], > 109 µM (inactive).
On to `Cc1ccc(Nc2c3c(nc4ncnn24)CCC3)cc1`, for which, in test [4], the EC50 was > 167 µM (inactive).
For `Cc1cc(C(=O)COC(=O)c2[nH]nc3ccccc23)c(C)n1C`, the IC50 in [8] was 32.4 µM (inactive); in test [9] it was 37.6 µM (inactive). In [10], the EC50 is recorded as > 50 µM (not active).
With `CCOc1ccc(CC2SC(Nc3ccccn3)=NC2=O)cc1` (stereo unspecified), the concentration giving a half-maximal response (EC50) in [11] is 25.1 µM (active).
Consider `Nc1cc(-c2nnn[nH]2)ccc1F`, for which the IC50 in test [2] was 0.859 µM (not active). In addition, in test [12], the AC50 is 28.2 µM (inconclusive).
`CC(C)c1ccc(C(=O)NNC(=O)C2C3CCC(C3)C2C(=O)O)cc1` (stereo unspecified): the EC50 in [13] was 0.281 µM (active); in test [14] it was < 0.1 µM (inconclusive); in test [15], 0.232 µM (active); in test [16] it was 0.301 µM (active).
Turning to `C(=C\c1ccc([C@H]2[C@@H]3CN(Cc4ccc5c(c4)OCO5)C[C@H]2N3)cc1)/c1ccccc1`, the AC50 was 12 µM (active) in [17]; 17.6 µM (active) in [18]; 18.8 µM (active) in test [19]; 20.2 µM (active) in test [20]; 8.83 µM (active) in test [21]; 2.83 µM (active) in test [22]. For the same compound, the AC50 in [23] is 31.7 µM (active); in test [24], 32.4 µM (active); in [25] it was 35.1 µM (active).
On to `COc1ccc(C(=O)NC2=C(c3ccc(OC(F)(F)F)cc3)C(=O)c3ccccc3C2=O)cc1`, for which the AC50 in [26] was 23.4 µM (active); in [27], 41 µM (active).
For the compound `O=C(O)c1cc(N/N=C/c2c[nH]c3ccccc23)ccc1Cl`, in test [28], the IC50 was > 2 µM (active).
In the case of `O=C(NC1=C(c2ccccc2)C(=O)c2ccccc2C1=O)c1ccccc1`, the half-maximal activity concentration (AC50) in test [26] is 18.3 µM (active); in [27] it was 47.5 µM (active).
On to `COP(=S)(OC)Oc1ccc(Sc2ccc(OP(=S)(OC)OC)cc2)cc1` [TEMEFOS], for which the IC50 is 3.03 µM (active) in [29]; 0.0118 µM (active) in test [30]; > 20 µM (inactive) in [31]; > 20 µM (inactive) in [32]; > 20 µM (inactive) in test [33]; > 20 µM (inactive) in [34]. Also, the IC50 in test [35] is > 66 µM (inactive); in test [36], > 66 µM (inactive); in test [37], > 20 µM (inactive).
